US10787450B2 (BRISTOL-MYERS SQUIBB COMPANY, priority 2016, dated 2020)
Structures can show the parent of a compound that is named as a salt.

The compounds below were run against ROCK2 (Homo sapiens (Human), UniProt O75116) (assay: ROCK2 kinase inhibition assay (FITC peptide substrate, LABCHIP 3000 Reader)). Conditions: 5 μM ATP, 1.5 μM peptide substrate.
Sequence of ROCK2 (O75116 whole entry, species assumed): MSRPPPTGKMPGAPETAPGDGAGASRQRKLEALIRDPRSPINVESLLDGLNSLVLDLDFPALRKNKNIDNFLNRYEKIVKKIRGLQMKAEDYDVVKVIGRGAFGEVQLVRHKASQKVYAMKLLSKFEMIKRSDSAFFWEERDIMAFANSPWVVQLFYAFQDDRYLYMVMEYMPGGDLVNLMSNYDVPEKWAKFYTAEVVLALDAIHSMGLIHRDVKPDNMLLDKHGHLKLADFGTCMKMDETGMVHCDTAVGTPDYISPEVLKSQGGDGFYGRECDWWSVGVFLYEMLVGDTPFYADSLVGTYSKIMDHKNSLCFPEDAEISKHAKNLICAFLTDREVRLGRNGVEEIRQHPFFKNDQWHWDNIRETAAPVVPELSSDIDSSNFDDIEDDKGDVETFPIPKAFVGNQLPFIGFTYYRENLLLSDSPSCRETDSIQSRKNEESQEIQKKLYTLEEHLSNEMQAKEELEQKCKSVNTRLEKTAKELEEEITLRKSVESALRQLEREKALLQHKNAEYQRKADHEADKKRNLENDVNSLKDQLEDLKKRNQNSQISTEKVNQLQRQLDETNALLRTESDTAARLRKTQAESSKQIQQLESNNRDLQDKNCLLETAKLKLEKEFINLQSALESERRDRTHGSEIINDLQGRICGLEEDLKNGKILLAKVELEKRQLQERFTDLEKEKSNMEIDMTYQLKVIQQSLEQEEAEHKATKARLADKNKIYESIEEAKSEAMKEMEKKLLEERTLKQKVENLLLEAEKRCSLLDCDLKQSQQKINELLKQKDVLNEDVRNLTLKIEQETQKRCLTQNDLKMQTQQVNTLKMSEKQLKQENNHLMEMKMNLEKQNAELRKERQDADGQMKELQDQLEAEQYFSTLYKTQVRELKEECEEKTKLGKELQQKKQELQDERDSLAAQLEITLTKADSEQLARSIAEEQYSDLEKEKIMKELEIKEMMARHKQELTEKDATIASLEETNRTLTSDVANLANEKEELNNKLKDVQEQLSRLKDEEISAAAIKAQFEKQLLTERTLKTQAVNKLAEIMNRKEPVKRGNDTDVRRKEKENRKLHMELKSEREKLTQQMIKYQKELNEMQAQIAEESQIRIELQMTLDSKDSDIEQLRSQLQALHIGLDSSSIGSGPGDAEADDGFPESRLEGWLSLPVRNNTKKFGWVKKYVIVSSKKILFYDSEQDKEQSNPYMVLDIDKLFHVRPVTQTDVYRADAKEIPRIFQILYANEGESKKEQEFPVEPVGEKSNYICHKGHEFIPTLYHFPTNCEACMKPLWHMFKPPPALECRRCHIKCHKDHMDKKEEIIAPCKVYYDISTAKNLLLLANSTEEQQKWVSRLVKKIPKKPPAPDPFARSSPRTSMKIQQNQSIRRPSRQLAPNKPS
Format: biochemical
How it was run: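 Reaction in 20 mM HEPES pH 7.5, 20 mM MgCl2, 0.015% Brij-35, 4 mM DTT with 5 μM ATP and 1.5 μM FITC-AHA-AKRRRLSSLRA-OH peptide, started with Rho kinase, DMSO <2%. EDTA-stopped; phospho and non-phospho peptide separated by mobility shift. IC50 from dose-response curve fit.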
For `CCc1nc(N2CC3(CCN(CC(C)(C)O)CC3)N(Cc3cccc(OC)c3)C2=O)ccc1-c1cn[nH]c1` [Example 152, 3-(6-ethyl-5-(1H-pyrazol-4-yl)pyridin-2-yl)-8-(2-hydroxy-2-methylpropyl)-1-(3-methoxybenzyl)-1,3,8-triazaspiro[4.5]decan-2-one], the IC50 was < 3 nM.
With `CCc1nc(N2CC3(CCN(CCO)CC3)N(Cc3cc(F)cc(OC)c3)C2=O)ccc1-c1cn[nH]c1` [Example 153, 3-(6-ethyl-5-(1H-pyrazol-4-yl)pyridin-2-yl)-1-(3-fluoro-5-methoxybenzyl)-8-(2-hydroxyethyl)-1,3,8-triazaspiro[4.5]decan-2-one] the IC50 was < 3 nM.
For `CCc1nc(N2CC3(CCN(CC(C)O)CC3)N(Cc3cc(F)cc(OC)c3)C2=O)ccc1-c1cn[nH]c1` (stereo not drawn) [Example 154, 3-(6-ethyl-5-(1H-pyrazol-4-yl)pyridin-2-yl)-1-(3-fluoro-5-methoxybenzyl)-8-(2-hydroxypropyl)-1,3,8-triazaspiro[4.5]decan-2-one], the IC50 was < 3 nM.
For `CCc1nc(N2CC3(CCN(CC(C)(C)O)CC3)N(Cc3cc(F)cc(OC)c3)C2=O)ccc1-c1cn[nH]c1` [Example 155, 3-(6-ethyl-5-(1H-pyrazol-4-yl)pyridin-2-yl)-1-(3-fluoro-5-methoxybenzyl)-8-(2-hydroxy-2-methylpropyl)-1,3,8-triazaspiro[4.5]decan-2-one], the IC50 was < 3 nM.
`CCc1nc(N2CC3(CCN(CC(C)O)CC3)N(Cc3cccc(F)c3C)C2=O)ccc1-c1cn[nH]c1` (stereo not drawn) [Example 156, 3-(6-ethyl-5-(1H-pyrazol-4-yl)pyridin-2-yl)-1-(3-fluoro-2-methylbenzyl)-8-(2-hydroxypropyl)-1,3,8-triazaspiro[4.5]decan-2-one] was tested, and the IC50 was < 3 nM.
In the case of `COc1cc(F)cc(CN2C(=O)N(c3ccc(-c4cn[nH]c4)cc3)CC23CCN(CC(C)O)CC3)c1` (stereo not drawn) [Example 157, 3-(4-(1H-pyrazol-4-yl)phenyl)-1-(3-fluoro-5-methoxybenzyl)-8-(2-hydroxypropyl)-1,3,8-triazaspiro[4.5]decan-2-one], the IC50 is reported as < 3 nM.
With `COc1cccc(CN2C(=O)N(c3ccc(-c4cn[nH]c4)cn3)CC23CCN(CCO)CC3)c1` [Example 159, 3-(5-(1H-pyrazol-4-yl)pyridin-2-yl)-8-(2-hydroxyethyl)-1-(3-methoxybenzyl)-1,3,8-triazaspiro[4.5]decan-2-one] the IC50 was < 3 nM.
`COc1cccc(CN2C(=O)N(c3ccc(-c4cn[nH]c4)cn3)CC23CCN(CC(C)O)CC3)c1` (stereo not drawn) [Example 160, 3-(5-(1H-pyrazol-4-yl)pyridin-2-yl)-8-(2-hydroxypropyl)-1-(3-methoxybenzyl)-1,3,8-triazaspiro[4.5]decan-2-one] was tested, and the IC50 was 3 to 30 nM.
With `COc1cccc(CN2C(=O)N(c3ccc(-c4cn[nH]c4)cn3)CC23CCN(CC(C)(C)O)CC3)c1` [Example 161, 3-(5-(1H-pyrazol-4-yl)pyridin-2-yl)-8-(2-hydroxy-2-methylpropyl)-1-(3-methoxybenzyl)-1,3,8-triazaspiro[4.5]decan-2-one] the IC50 was < 3 nM.
`COCCN1CCC2(CC1)CN(c1ccc(-c3cn[nH]c3)cn1)C(=O)N2Cc1cccc(OC)c1` [Example 162, 3-(5-(1H-pyrazol-4-yl)pyridin-2-yl)-1-(3-methoxybenzyl)-8-(2-methoxyethyl)-1,3,8-triazaspiro[4.5]decan-2-one] was tested, and the IC50 was < 3 nM.
In the case of `COc1cccc(CN2C(=O)N(c3ncc(-c4cn[nH]c4)c(OC)n3)CC23CCN(CC(C)(C)O)CC3)c1` [Example 163, 8-(2-hydroxy-2-methylpropyl)-3-(4-methoxy-5-(1H-pyrazol-4-yl)pyrimidin-2-yl)-1-(3-methoxybenzyl)-1,3,8-triazaspiro[4.5]decan-2-one], the IC50 is reported as 3 to 30 nM.
With `COCCN1CCC2(CC1)CN(c1ccc(-c3cn[nH]c3)c(OC)n1)C(=O)N2Cc1cccc(F)c1C` [Example 165, 1-(3-fluoro-2-methylbenzyl)-3-(6-methoxy-5-(1H-pyrazol-4-yl)pyridin-2-yl)-8-(2-methoxyethyl)-1,3,8-triazaspiro[4.5]decan-2-one] the IC50 was < 3 nM.
In the case of `COc1nc(N2CC3(CCN(CC(C)O)CC3)N(Cc3cccc(F)c3C)C2=O)ccc1-c1cn[nH]c1` (stereo not drawn) [Example 166, 1-(3-fluoro-2-methylbenzyl)-8-(2-hydroxypropyl)-3-(6-methoxy-5-(1H-pyrazol-4-yl)pyridin-2-yl)-1,3,8-triazaspiro[4.5]decan-2-one], the IC50 is reported as < 3 nM.
In the case of `COc1nc(N2CC3(CCN(CC(C)(C)O)CC3)N(Cc3cccc(F)c3C)C2=O)ccc1-c1cn[nH]c1` [Example 167, 1-(3-fluoro-2-methylbenzyl)-8-(2-hydroxy-2-methylpropyl)-3-(6-methoxy-5-(1H-pyrazol-4-yl)pyridin-2-yl)-1,3,8-triazaspiro[4.5]decan-2-one], the IC50 is reported as < 3 nM.
With `CNC(=O)CN1CCC2(CC1)CN(c1ccc(-c3cn[nH]c3)cc1)C(=O)N2Cc1cccc(OC)c1` [Example 168, 2-(3-(4-(1H-pyrazol-4-yl)phenyl)-1-(3-methoxybenzyl)-2-oxo-1,3,8-triazaspiro[4.5]decan-8-yl)-N-methylacetamide] the IC50 was < 3 nM.
`COc1cccc(CN2C(=O)N(c3ccc(-c4cn[nH]c4)cc3)CC23CCN(CC(N)=O)CC3)c1` [Example 169, 2-(3-(4-(1H-pyrazol-4-yl)phenyl)-1-(3-methoxybenzyl)-2-oxo-1,3,8-triazaspiro[4.5]decan-8-yl)acetamide] was tested, and the IC50 was < 3 nM.
In the case of `COc1cccc(CN2C(=O)N(c3ccc(-c4cn[nH]c4)cc3)CC23CCN(CC(=O)N(C)C)CC3)c1` [Example 170, 2-(3-(4-(1H-pyrazol-4-yl)phenyl)-1-(3-methoxybenzyl)-2-oxo-1,3,8-triazaspiro[4.5]decan-8-yl)-N,N-dimethylacetamide], the IC50 is reported as < 3 nM.
For `COc1cccc(CN2C(=O)N(c3ccc(-c4cn[nH]c4)cc3)CC23CCN(C(=O)C2CCC(F)(F)CC2)CC3)c1` [Example 171, 3-(4-(1H-pyrazol-4-yl)phenyl)-8-(4,4-difluorocyclohexanecarbonyl)-1-(3-methoxybenzyl)-1,3,8-triazaspiro[4.5]decan-2-one], the IC50 was < 3 nM.
With `COc1cccc(CN2C(=O)N(c3ccc(-c4cn[nH]c4)cc3)CC23CCN(C(=O)C2CCC2)CC3)c1` [Example 172, 3-(4-(1H-pyrazol-4-yl)phenyl)-8-(cyclobutanecarbonyl)-1-(3-methoxybenzyl)-1,3,8-triazaspiro[4.5]decan-2-one] the IC50 was < 3 nM.
With `COc1cccc(CN2C(=O)N(c3ccc(-c4cn[nH]c4)cc3)CC23CCN(C(=O)C2CCOCC2)CC3)c1` [Example 173, 3-(4-(1H-pyrazol-4-yl)phenyl)-1-(3-methoxybenzyl)-8-(tetrahydro-2H-pyran-4-carbonyl)-1,3,8-triazaspiro[4.5]decan-2-one, TFA] the IC50 was < 3 nM.
In the case of `COc1cccc(CN2C(=O)N(c3ccc(-c4cn[nH]c4)cc3)CC23CCN(C(=O)C2CCCC2)CC3)c1` [Example 174, 3-(4-(1H-pyrazol-4-yl)phenyl)-8-(cyclopentanecarbonyl)-1-(3-methoxybenzyl)-1,3,8-triazaspiro[4.5]decan-2-one], the IC50 is reported as < 3 nM.
For `COc1cccc(CN2C(=O)N(c3ccc(-c4cn[nH]c4)cc3)CC23CCN(C(=O)C2CCC(F)(F)C2)CC3)c1` (stereo not drawn) [Example 175, 3-(4-(1H-pyrazol-4-yl)phenyl)-8-(3,3-difluorocyclopentane-carbonyl)-1-(3-methoxybenzyl)-1,3,8-triazaspiro[4.5]decan-2-one], the IC50 was < 3 nM.
`COc1cccc(CN2C(=O)N(c3ccc(-c4cn[nH]c4)cc3)CC23CCN(C(=O)CO)CC3)c1` [Example 176, 3-(4-(1H-pyrazol-4-yl)phenyl)-8-(2-hydroxyacetyl)-1-(3-methoxybenzyl)-1,3,8-triazaspiro[4.5]decan-2-one] was tested, and the IC50 was < 3 nM.
In the case of `COc1cccc(CN2C(=O)N(c3ccc(-c4cn[nH]c4)cc3)CC23CCN(C(=O)[C@H](C)O)CC3)c1` [Example 177, (S)-3-(4-(1H-pyrazol-4-yl)phenyl)-8-(2-hydroxypropanoyl)-1-(3-methoxybenzyl)-1,3,8-triazaspiro[4.5]decan-2-one], the IC50 is reported as < 3 nM.
`COc1cccc(CN2C(=O)N(c3ccc(-c4cn[nH]c4)cc3)CC23CCN(C(=O)[C@@H](C)O)CC3)c1` [Example 178, (R)-3-(4-(1H-pyrazol-4-yl)phenyl)-8-(2-hydroxypropanoyl)-1-(3-methoxybenzyl)-1,3,8-triazaspiro[4.5]decan-2-one] was tested, and the IC50 was < 3 nM.
Work on `COc1cccc(CN2C(=O)N(c3ccc(-c4cn[nH]c4)cc3)CC23CCN(C(=O)c2ccc4cc[nH]c4c2)CC3)c1` [Example 179, 3-(4-(1H-pyrazol-4-yl)phenyl)-8-(1H-indole-6-carbonyl)-1-(3-methoxybenzyl)-1,3,8-triazaspiro[4.5]decan-2-one] yielded an IC50 of 3 to 30 nM.
For `COc1cccc(CN2C(=O)N(c3ccc(-c4cn[nH]c4)cc3)CC23CCN(C(=O)c2cnn4ccccc24)CC3)c1` [Example 180, 3-(4-(1H-pyrazol-4-yl)phenyl)-1-(3-methoxybenzyl)-8-(pyrazolo[1,5-a]pyridine-3-carbonyl)-1,3,8-triazaspiro[4.5] decan-2-one], the IC50 was 3 to 30 nM.
In the case of `CCc1nc(N2CC3(CCN(C(=O)CO)CC3)N(Cc3cccc(F)c3C)C2=O)ccc1-c1cn[nH]c1` [Example 181, 3-(6-ethyl-5-(1H-pyrazol-4-yl)pyridin-2-yl)-1-(3-fluoro-2-methylbenzyl)-8-(2-hydroxyacetyl)-1,3,8-triazaspiro[4.5]decan-2-one], the IC50 is reported as < 3 nM.
In the case of `CCc1nc(N2CC3(CCN(C(=O)C4COC4)CC3)N(Cc3cccc(F)c3C)C2=O)ccc1-c1cn[nH]c1` [Example 182, 3-(6-ethyl-5-(1H-pyrazol-4-yl)pyridin-2-yl)-1-(3-fluoro-2-methylbenzyl)-8-(oxetane-3-carbonyl)-1,3,8-triazaspiro[4.5]decan-2-one], the IC50 is reported as < 3 nM.
`CCc1nc(N2CC3(CCN(C(=O)C(F)F)CC3)N(Cc3cccc(OC)c3)C2=O)ccc1-c1cn[nH]c1` [Example 183, 8-(2,2-difluoroacetyl)-3-(6-ethyl-5-(1H-pyrazol-4-yl)pyridin-2-yl)-1-(3-methoxybenzyl)-1,3,8-triazaspiro[4.5]decan-2-one] was tested, and the IC50 was < 3 nM.
